“Also recorded” adds a separate entry of the source.
Assays:
Format in all cases: cell-based
human saphenous vein [1] = test: KCl-induced contraction of human saphenous vein rings treated with erioglaucine; settings: FIGS. 11A-B
Experimental: Effect of erioglaucine on human saphenous vein was determined using de-identified discarded segments of human saphenous vein from patients undergoing coronary artery bypass or peripheral vascular bypass surgery (n=4). The veins were stored in a saline solution until the end of the surgical procedure at which time they were placed in cold transplant harvest buffer (100 mM potassium lactobionate, 25 mM KH2PO4, 5 mM MgSO4, 30 mM raffinose, 5 mM adenosine, 3 mM glutathione, 1 mM allopurinol, 50 g/L hydroxyethyl starch, pH 7.4). The vessels were tested within 24 hrs of harvest storage in transplant harvest buffer at 4° C. To test the viability, rings 1.0 mm in width were cut from segments of saphenous vein dissected free of fat and connective tissue, treated with either a solution of erioglaucine (FCF, 2.6 mM, in 5% propylene glycol and water) or vehicle and incubated for 30 min at room temperature. The tissues were then stripped of the endothelium and suspended in a muscle bath containing a bicarbonate buffer, gassed with 95% O2/5% CO2 at 37° C. The rings were manually stretched to 4 g of tension, and was maintained at a resting tension of 1 g was obtained and equilibrated for ˜2 hr. […] The rings were contracted with 110 mM KCl (with equimolar replacement of NaCl in bicarbonate buffer), and the force generated was measured. […]

human saphenous vein [2] = test: BzATP-induced contraction of saphenous vein rings after erioglaucine pretreatment; settings: erioglaucine 50-200 μM for 30 min, then 100 μM BzATP; FIG. 12
Experimental: Human saphenous vein segments were collected after harvest before surgical manipulation from patients undergoing coronary artery bypass or peripheral vascular bypass surgery and stored in PlasmaLyte. The vessels were tested within 2 hours of harvest. Freshly isolated porcine saphenous vein was collected in cold transplant harvest buffer (100 mM potassium lactobionate, 25 mM KH2PO4, 5 mM MgSO4, 30 mM Raffinose, 5 mM Adenosine, 3 mM Glutathione, 1 mM Allopurinol, 50 g/L Hydroxyethyl starch, pH 7.4). The vessels were tested within 24 hours of harvest. Rings 1.0 mm in width were cut from porcine saphenous veins (FIG. 12A, n=2) and unmanipulated human saphenous vein (FIG. 12B, n=4) dissected free of fat and connective tissue. The rings were then stripped of the endothelium and suspended in a muscle bath containing a bicarbonate buffer, bubbled with 95% O2/5% CO2 at 37° C. The rings were manually stretched to 4 g of tension, and was maintained at a resting tension of 1 g was obtained and equilibrated for ˜2 hr. Force measurements were obtained using a Radnoti Glass Technology (Monrovia, Calif.) force transducer (159901A) interfaced with a Powerlab data acquisition system and Chart software (AD Instruments, Colorado Springs, Colo.). Rings were contracted with 110 mM KCl. […] Force was measured and converted to stress. Response was expressed as % of maximal KCl contraction. […]

porcine saphenous vein [3] = test: KCl-induced contraction of porcine saphenous vein after stretch injury, with or without dye
Experimental: Freshly isolated porcine saphenous vein was collected in cold transplant harvest buffer (100 mM potassium lactobionate, 25 mM KH2PO4, 5 mM MgSO4, 30 mM raffinose, 5 mM adenosine, 3 mM glutathione, 1 mM allopurinol, 50 g/L hydroxyethyl starch, pH 7.4). The vessels were tested within 24 hours of harvest and storage in transplant harvest buffer at 4° C. The vein was dissected free of fat and connective tissue and cut into 2 cm long segments. The segments were stretched to twice their resting length (stretched; n=7) or not manipulated (control; n=12). After stretching, the segments from both groups were further divided. A solution of erioglaucine (FCF, 2.6 mM, in 5% propylene glycol and water) or vehicle was then applied with a cotton swab in a longitudinal line to the untreated (FCF; n=8) or the stretched (Stretched+FCF; n=3) vein segments. The segments were incubated at room temperature for 15 min in Plasmalyte and then cut into rings. The rings were suspended in a muscle bath containing a bicarbonate buffer (120 mM NaCl, 4.7 mM KCl, 1.0 mM MgSO4, 1.0 mM NaH2PO4, 10 mM glucose, 1.5 mM CaCl2, and 25 mM […], pH 7.4), bubbled with 95% O2/5% CO2 at 37° C. The rings were manually stretched to 4 g of tension, and maintained at a resting tension of 1 g and equilibrated for ˜2 hr.
Rings from stretched segments were either incubated with 50 μM Allura Red (+Red) or 50 μM of erioglaucine (+FCF) for 30 min. The rings were then allowed to equilibrate in the bicarbonate buffer for before contracting with 110 mM KCl. Force generated was converted to stress (10^5 N/m^2). Data represent relative contractile response to Control rings which was set as 100%.

human saphenous vein [4] = test: Intimal thickness of human saphenous vein rings in 14 day organ culture; settings: 50 μM erioglaucine, 14 days culture, compared to Control; FIG. 13
Experimental: Segments of human saphenous vein were collected prior to preparation of the vein for transplantation into the arterial circulation (unmanipulated, UM) and after surgical preparation (after manipulation, AM) from the same patients in PlasmaLyte and were used within 2 hr of harvest. The segment was cut into ˜1 mm rings and one ring from each group was fixed in formalin (Pre-culture). The other rings were cultured in RPMI medium supplemented with 1% L-glutamine, 1% penicillin/streptomycin and 30% fetal bovine serum at 5% CO2 and 37° C. in the absence (Control) or presence of 50 μM erioglaucine (FCF) for 14 days. After 14 days, the rings were fixed in formalin, sectioned at 5 μm and stained using Verhoff Van Gieson stain. Light micrograph of the rings was captured using an Axiovert 200 and intimal thickness was measured using AxioVision. Data represent % increase of intimal thickness related to basal intimal thickness of the pre-culture ring which was set as 0%. The error bars show the standard error of the mean.

porcine saphenous vein [5] = test: Intimal thickening of distended porcine saphenous vein rings in 14 day organ culture; settings: 50 μM dye, 14 days culture, distended to >300 mm Hg, compared to Distended-Control; FIG. 14
Experimental: Fresh porcine saphenous vein was harvested by a no touch method under sterile conditions and stored in cold transplant harvest buffer (100 mM potassium lactobionate, 25 mM KH2PO4, 5 mM MgSO4, 30 mM Raffinose, 5 mM Adenosine, 3 mM Glutathione, 1 mM Allopurinol, 50 g/L Hydroxyethyl starch, pH 7.4). The vessels were used within 24 hr of harvest. The veins were divided into three segments that were left untreated (Unmanipulated, n=7), distended (Distended, n=8) to >300 mm Hg, or distended in the presence of the pressure relief valve (Pop Off, n=7). Each segment was then cut into ˜1 mm rings and one ring from each condition was immediately fixed in formalin (Pre-culture). The other rings were cultured in RPMI medium supplemented with 1% L-glutamine, penicillin/streptomycin and 30% Fetal bovine serum at 5% CO2 and 37° C. in the absence (Control) or presence of either 50 μM erioglaucine (FCF), 50 μM brilliant blue G (BBG) or 50 μM Allura Red (Red) for 14 days. After 14 days, the rings were fixed in formalin, sectioned at 5 μm and stained using Verhoff Van Gieson stain. Light micrograph of the rings was captured using a Axiovert 200 and intimal thickness was measured using AxioVision.

Structure (SMILES): CCN(Cc1cccc(S(=O)(=O)[O-])c1)c1ccc(C(=C2C=CC(=[N+](CC)Cc3cccc(S(=O)(=O)[O-])c3)C=C2)c2ccccc2S(=O)(=O)[O-])cc1.[Na+].[Na+] [erioglaucine]
- smooth muscle viability (in words) (human saphenous vein [1]): restores smooth muscle viability
- BzATP induced contraction (human saphenous vein [2]): significantly inhibited BzATP induced contraction; also recorded: blocks BzATP-induced contraction
- restoration of functional viability (contractile response to KCl) after stretch injury (porcine saphenous vein [3]; 50 μM dye for 30 min on rings from stretched segments, FIG. 10): significantly restored contractile response
- restoration of functional viability after stretch injury (in words) (porcine saphenous vein [3]; FIG. 9): restores functional viability
- development of intimal thickness (human saphenous vein [4]): inhibited the development of intimal thickness; also recorded: reduces intimal thickness
- distension induced increases in intimal thickening (porcine saphenous vein [5]): inhibited distension induced increases in intimal thickening; also recorded: reduces intimal layer thickening
